Laboratory results: ChEMBL document CHEMBL1156236, “Trypanoside, anti-tuberculosis, leishmanicidal, and cytotoxic activities of tetrahydrobenzothienopyrimidines” (Bioorg Med Chem, 2010)

Assays:
[1] = tested on: HCT-116; assay: Cytotoxicity against human HCT116 cells; type: functional
[2] = tested on: Malme-3M; assay: Cytotoxicity against human MALME-3M cells; type: functional
[3] = tested on: KM12; assay: Cytotoxicity against human KM12 cells; type: functional
[4] = tested on: OVCAR-4; assay: Cytotoxicity against human OVCAR4 cells; type: functional
[5] = tested on: MDA-MB-468; assay: Cytotoxicity against human MDA-MB-468 cells; type: functional
[6] = tested on: MDA-MB-231; assay: Cytotoxicity against human MDA-MB-231 cells; type: functional
[7] = tested on: PC-3; assay: Cytotoxicity against human PC3 cells; type: functional
[8] = tested on: EKVX; assay: Cytotoxicity against human EKVX cells; type: functional
[9] = tested on: MOLT-4; assay: Cytotoxicity against human MOLT4 cells; type: functional
[10] = tested on: SK-OV-3; assay: Cytotoxicity against human SKOV3 cells; type: functional
[11] = tested on: SF-539; assay: Cytotoxicity against human SF539 cells; type: functional
[12] = Selectivity index, ratio of IC50 for BALB/c mouse macrophages to IC50 for Leishmania amazonensis MHOM/BR/76/LTB-012
[13] = tested on: SK-MEL-5; assay: Cytotoxicity against human SK-MEL-5 cells; type: functional
[14] = tested on: CAKI-1; assay: Cytotoxicity against human Caki1 cells; type: functional
[15] = tested on: K562; assay: Cytotoxicity against human K562 cells; type: functional
[16] = tested on: MDA-MB-435; assay: Cytotoxicity against human MDA-MB-435 cells; type: functional
[17] = tested on: DU-145; assay: Cytotoxicity against human DU145 cells; type: functional
[18] = tested on: NCI-H322M; assay: Cytotoxicity against human NCI-H322M cells; type: functional
[19] = tested on: HOP-62; assay: Cytotoxicity against human HOP62 cells; type: functional
[20] = tested on: SK-MEL-28; assay: Cytotoxicity against human SK-MEL-28 cells; type: functional
[21] = tested on: SR; assay: Cytotoxicity against human SR cells; type: functional
[22] = tested on: IGROV-1; assay: Cytotoxicity against human IGROV1 cells; type: functional
[23] = tested on: HT-29; assay: Cytotoxicity against human HT-29 cells; type: functional
[24] = tested on: SF-295; assay: Cytotoxicity against human SF295 cells; type: functional
[25] = tested on: CCRF-CEM; assay: Cytotoxicity against human CCRF-CEM cells; type: functional
[26] = tested on: HL-60(TB); assay: Cytotoxicity against human HL-60(TB) cells; type: functional
[27] = read-out: LC50 (the source's name)

C(=N\Nc1ncnc2sc3c(c12)CCCC3)/c1ccccn1
GI50 [1]: 0.166 µM | TGI [1]: 14.2 µM | CC50 [1, 27]: 67.4 µM | GI50 [2]: 0.275 µM | TGI [2]: 10.3 µM | CC50 [2, 27]: 51.4 µM | GI50 [3]: 0.515 µM | TGI [3]: 12.7 µM | CC50 [3, 27]: 38 µM | GI50 [4]: 0.431 µM | TGI [4]: 26.3 µM | CC50 [4, 27]: > 0.1 µM | GI50 [5]: 0.2 µM | TGI [5]: 0.505 µM | CC50 [5, 27]: 41 µM | GI50 [6]: 0.603 µM | TGI [6]: 29.7 µM | CC50 [6, 27]: > 100 µM | GI50 [7]: 0.431 µM | TGI [7]: 71.1 µM | CC50 [7, 27]: > 100 µM | GI50 [8]: 0.317 µM | TGI [8]: 20.5 µM | CC50 [8, 27]: > 100 µM | GI50 [9]: 0.261 µM | TGI [9]: 0.774 µM | CC50 [9, 27]: > 100 µM | GI50 [10]: 0.41 µM | TGI [10]: 29.2 µM | CC50 [10, 27]: > 0.1 µM | GI50 [11]: 0.391 µM | TGI [11]: 0.384 µM | CC50 [11, 27]: 29.2 µM | Ratio IC50 [12]: 13 | GI50 [13]: 0.332 µM | TGI [13]: 1.72 µM | CC50 [13, 27]: 23.6 µM | GI50 [14]: 0.313 µM | TGI [14]: 14.8 µM | CC50 [14, 27]: > 100 µM | GI50 [15]: 0.16 µM | TGI [15]: 10.8 µM | CC50 [15, 27]: > 100 µM | GI50 [16]: 0.477 µM | TGI [16]: 25.1 µM | CC50 [16, 27]: > 100 µM | GI50 [17]: 0.37 µM | LC50 [17]: 51.6 µM | TGI [17]: 15.1 µM | GI50 [18]: 0.216 µM | TGI [18]: 35 µM | CC50 [18, 27]: > 100 µM | GI50 [19]: 0.395 µM | TGI [19]: 17.7 µM | CC50 [19, 27]: > 100 µM | GI50 [20]: 0.422 µM | TGI [20]: 16.7 µM | CC50 [20, 27]: 54.6 µM | GI50 [21]: 0.368 µM | TGI [21]: 0.953 µM | CC50 [21, 27]: > 100 µM | GI50 [22]: 0.45 µM | TGI [22]: 28.9 µM | CC50 [22, 27]: > 100 µM | GI50 [23]: 0.1 µM | LC50 (lethal concentration, 50% cell kill) [23]: 44.9 µM | TGI [23]: 15.1 µM | GI50 [24]: 0.313 µM | TGI [24]: 12.1 µM | CC50 [24, 27]: > 100 µM | GI50 [25]: 0.242 µM | TGI [25]: 0.769 µM | CC50 [25, 27]: > 100 µM | GI50 [26]: 0.12 µM | TGI [26]: 0.407 µM | CC50 [26, 27]: > 100 µM
